# In patent US8691753B2 (priority 2009, dated 2014):
# Where two headings read alike, the source gives them in different places.
# Assays:
# Format in all cases: biochemical
# [1] = target: MMP-8h (Homo sapiens (Human), UniProt P22894); assay: Inhibition constant (Ki) on MMP-8h; details: human MMP-8
# [2] = target: MMP-9h (Homo sapiens (Human), UniProt P14780); assay: Inhibition constant (Ki) on MMP-9h; details: human MMP-9
# From the text: (§1) The inhibition constant Ki of these compounds has been determined according to the protocol described by Devel et al, 2006, J. Biol. Chem. (7).
# (§2) In this table I and also in table II below, “h” corresponds to human. All of the compounds have therefore been evaluated on human MMPs.
# [3] = target: MMP-3h (Homo sapiens (Human), UniProt P08254); assay: Inhibition constant (Ki) on MMP-3h; details: human MMP-3
# Sequence of MMP-3h (P08254 100-477): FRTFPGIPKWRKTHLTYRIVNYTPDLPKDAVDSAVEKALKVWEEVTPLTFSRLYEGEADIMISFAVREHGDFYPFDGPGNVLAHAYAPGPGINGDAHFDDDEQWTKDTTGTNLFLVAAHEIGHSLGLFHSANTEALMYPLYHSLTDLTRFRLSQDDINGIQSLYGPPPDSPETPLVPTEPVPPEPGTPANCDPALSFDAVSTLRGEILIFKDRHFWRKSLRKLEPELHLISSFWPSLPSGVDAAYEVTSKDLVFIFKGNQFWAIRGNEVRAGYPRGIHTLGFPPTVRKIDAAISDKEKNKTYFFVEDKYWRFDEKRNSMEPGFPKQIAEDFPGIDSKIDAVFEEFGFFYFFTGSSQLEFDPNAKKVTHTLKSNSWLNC
# From the text: as §1, §2
# [4] = target: MMP-2h (Homo sapiens (Human), UniProt P08253); assay: Inhibition constant (Ki) on MMP-2h; details: human MMP-2
# Sequence of MMP-2h (P08253 110-660): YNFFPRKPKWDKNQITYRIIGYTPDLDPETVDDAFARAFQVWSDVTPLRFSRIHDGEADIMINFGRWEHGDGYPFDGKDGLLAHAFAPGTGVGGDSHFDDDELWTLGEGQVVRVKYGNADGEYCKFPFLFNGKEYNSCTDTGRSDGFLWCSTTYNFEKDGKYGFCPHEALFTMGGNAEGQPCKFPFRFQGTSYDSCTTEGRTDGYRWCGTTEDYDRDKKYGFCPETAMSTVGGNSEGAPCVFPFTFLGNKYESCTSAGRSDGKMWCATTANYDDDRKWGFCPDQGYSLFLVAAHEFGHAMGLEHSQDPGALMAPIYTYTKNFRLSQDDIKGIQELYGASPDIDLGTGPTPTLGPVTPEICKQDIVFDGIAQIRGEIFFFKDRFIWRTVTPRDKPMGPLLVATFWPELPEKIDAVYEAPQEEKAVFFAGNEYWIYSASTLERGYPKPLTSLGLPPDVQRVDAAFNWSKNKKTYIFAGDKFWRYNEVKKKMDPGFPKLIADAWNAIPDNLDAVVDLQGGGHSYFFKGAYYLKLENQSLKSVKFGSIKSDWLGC
# From the text: as §1, §2
# [5] = target: MMP-14h (Homo sapiens (Human), UniProt P50281); assay: Inhibition constant (Ki) on MMP-14h; details: human MMP-14
# From the text: as §1, §2
# [6] = target: MMP-10h (Homo sapiens (Human), UniProt P09238); assay: Inhibition constant (Ki) on MMP-10h; details: human MMP-10
# Sequence of MMP-10h (P09238 99-476): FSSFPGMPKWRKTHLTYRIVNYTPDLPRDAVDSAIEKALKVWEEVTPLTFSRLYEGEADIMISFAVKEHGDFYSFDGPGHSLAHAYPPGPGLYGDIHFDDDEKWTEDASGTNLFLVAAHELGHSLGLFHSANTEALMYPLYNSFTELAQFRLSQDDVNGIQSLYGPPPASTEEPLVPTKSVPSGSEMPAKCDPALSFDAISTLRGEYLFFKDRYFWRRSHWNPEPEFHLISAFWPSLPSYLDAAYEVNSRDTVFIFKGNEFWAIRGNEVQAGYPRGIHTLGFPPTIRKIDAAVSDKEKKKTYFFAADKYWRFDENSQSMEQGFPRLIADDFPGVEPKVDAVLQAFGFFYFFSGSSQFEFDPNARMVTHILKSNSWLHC
# [7] = target: MMP-13h (Homo sapiens (Human), UniProt P45452); assay: Inhibition constant (Ki) on MMP-13h; details: human MMP-13
# From the text: as §1, §2
# [8] = target: MMP-12h (Homo sapiens (Human), UniProt P39900); assay: Inhibition constant (Ki) on MMP-12h; details: human MMP-12
# Sequence of MMP-12h (P39900 106-470): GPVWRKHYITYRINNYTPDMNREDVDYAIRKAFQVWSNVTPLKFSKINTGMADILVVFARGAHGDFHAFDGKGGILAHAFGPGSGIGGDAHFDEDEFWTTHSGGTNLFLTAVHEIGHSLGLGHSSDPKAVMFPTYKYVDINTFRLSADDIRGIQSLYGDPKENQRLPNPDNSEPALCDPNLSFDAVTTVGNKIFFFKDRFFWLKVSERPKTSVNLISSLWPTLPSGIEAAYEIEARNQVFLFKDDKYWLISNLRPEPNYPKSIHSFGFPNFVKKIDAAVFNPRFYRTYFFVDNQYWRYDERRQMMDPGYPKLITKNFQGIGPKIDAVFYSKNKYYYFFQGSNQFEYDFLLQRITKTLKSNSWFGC
# Sequence of MMP-9h (P14780 94-707): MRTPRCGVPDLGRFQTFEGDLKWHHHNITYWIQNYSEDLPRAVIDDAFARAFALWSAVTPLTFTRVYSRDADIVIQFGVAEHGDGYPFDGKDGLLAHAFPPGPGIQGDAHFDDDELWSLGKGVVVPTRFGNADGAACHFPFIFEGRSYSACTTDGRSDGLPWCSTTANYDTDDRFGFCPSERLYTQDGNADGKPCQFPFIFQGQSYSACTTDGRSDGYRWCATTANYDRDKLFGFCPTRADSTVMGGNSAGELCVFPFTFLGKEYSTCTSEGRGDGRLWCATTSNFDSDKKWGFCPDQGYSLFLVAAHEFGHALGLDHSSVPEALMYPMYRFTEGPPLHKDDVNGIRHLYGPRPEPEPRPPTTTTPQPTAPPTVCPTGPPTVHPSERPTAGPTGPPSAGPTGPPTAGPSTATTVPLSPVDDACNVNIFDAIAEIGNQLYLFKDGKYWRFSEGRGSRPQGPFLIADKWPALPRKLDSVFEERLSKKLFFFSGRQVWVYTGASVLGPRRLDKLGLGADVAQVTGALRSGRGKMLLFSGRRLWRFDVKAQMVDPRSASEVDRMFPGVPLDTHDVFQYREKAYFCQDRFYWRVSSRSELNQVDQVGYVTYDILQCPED
# Sequence of MMP-8h (P22894 101-467): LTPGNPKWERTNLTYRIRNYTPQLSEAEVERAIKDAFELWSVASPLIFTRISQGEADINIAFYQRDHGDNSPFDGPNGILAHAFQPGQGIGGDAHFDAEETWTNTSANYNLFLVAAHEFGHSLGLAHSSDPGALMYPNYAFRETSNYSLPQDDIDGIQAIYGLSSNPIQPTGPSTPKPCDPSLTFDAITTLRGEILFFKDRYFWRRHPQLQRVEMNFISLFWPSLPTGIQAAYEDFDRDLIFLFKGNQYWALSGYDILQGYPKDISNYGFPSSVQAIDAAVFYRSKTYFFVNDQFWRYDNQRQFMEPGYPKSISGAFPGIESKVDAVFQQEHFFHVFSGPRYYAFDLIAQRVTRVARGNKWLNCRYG
SMILES,Ki ([1]; read-out: Ki MMP-8h) [nM],Ki ([2]; read-out: Ki MMP-9h) [nM],Ki ([3]; read-out: Ki MMP-3h) [nM],Ki ([4]; read-out: Ki MMP-2h) [nM],Ki ([5]; read-out: Ki MMP-14h) [nM],Ki ([6]; read-out: Ki MMP-10h) [nM],Ki ([7]; read-out: Ki MMP-13h) [nM],Ki ([8]; read-out: Ki MMP-12h) [nM],Ki [1] [nM],Ki [2] [nM],Ki [3] [nM],Ki [4] [nM],Ki [5] [nM],Ki [6] [nM],Ki [7] [nM],Ki [8] [nM]
"O=C(O)CC[C@H](NC(=O)CCc1ccc(-c2ccccc2)cc1)C(=O)N1CCC[C@@H](CC(=O)O)C1 [Compound 51, (S)-4-(3-(biphenyl-4-yl)propanamido)-5-((S)-3-(carboxymethyl)piperidin-1-yl)-5-oxopentanoic acid]",929,> 1000,> 10000,> 1000,> 5000,> 10000,> 1000,259,,,,,,,,
"CC(C)C[C@H](NC(=O)[C@H](CCC(=O)O)NC(=O)CCc1ccc(-c2ccccc2)cc1)C(N)=O [Compound 50, (S)-5-((S)-1-amino-4-methyl-1-oxopentan-2-ylamino)-4-(3-(biphenyl-4-yl)propanamido)-5-oxopentanoic acid]",364,> 5000,> 50000,> 1000,> 5000,> 5000,> 1000,76,,,,,,,,
"NC(=O)[C@H](CCC(=O)O)NC(=O)[C@H](CCC(=O)O)NC(=O)CCc1ccc(-c2cc(Cl)cc(Cl)c2)cc1 [Compound 58, (S)-5-amino-4-((S)-4-carboxy-2-(3-(3′,5′-dichlorobiphenyl-4-yl)propanamido)butanamido)-5-oxopentanoic acid]",> 5000,391,> 1000,> 1000,> 1000,> 1000,> 1000,56,,,,,,,,
"O=C(O)CC[C@H](NC(=O)CCc1ccc(-c2ccccc2)cc1)C(=O)Nc1cccc(CC(=O)O)c1 [Compound 52, (S)-4-(3-(biphenyl-4-yl)propanamido)-5-(3-(carboxymethyl)phenylamino)-5-oxopentanoic acid]",63,> 1000,> 5000,546,> 1000,433,> 1000,12.7,,,,,,,,
"NC(=O)[C@H](CCC(=O)O)NC(=O)[C@H](CCC(=O)O)NC(=O)CCc1ccc(-c2csnn2)cc1 [Compound 35, (S)-4-(3-(4-(1,2,3-thiadiazol-4-yl)phenyl)propanamido)-5-((S)-1-amino-4-carboxy-1-oxobutan-2-ylamino)-5-oxopentanoic acid]",,,,,,,,,231,199,281,442,438,679,212,158
"NC(=O)[C@H](CCC(=O)O)NC(=O)[C@H](CCC(=O)O)NC(=O)CCc1ccc(-c2cccc(Cl)c2)cc1 [Compound 57, (S)-5-amino-4-((S)-4-carboxy-2-(3-(3′-chlorobiphenyl-4-yl)propanamido)butanamido)-5-oxopentanoic acid]",> 1000,> 1000,> 10000,> 1000,> 10000,> 5000,> 5000,57,,,,,,,,
"O=C(O)CC[C@H](NC(=O)CCc1ccc(-c2ccc(-c3ccccc3)cc2)cc1)C(=O)Nc1cccc(CC(=O)O)c1 [Compound 71, (S)-5-(3-(carboxymethyl)phenylamino)-4-(3-(4′-phenylbiphenyl-4-yl)propanamido)-5-oxopentanoic acid]",99,645,34,18.1,696,7.7,10.2,1.05,,,,,,,,
"NC(=O)[C@H](CC(=O)O)NC(=O)[C@H](CCC(=O)O)NC(=O)CCc1ccc(-c2cccs2)cc1 [Compound 83, (S)-5-((S)-1-amino-3-carboxy-1-oxopropan-2-ylamino)-5-oxo-4-(3-(4-(thiophen-2-yl)phenyl)propanamido)pentanoic acid]",49,> 1000,> 10000,334,> 1000,435,> 1000,14.2,,,,,,,,
"NC(=O)CC[C@H](NC(=O)CCc1cc(-c2ccc(-c3ccccc3)cc2)no1)C(=O)N[C@@H](CCC(=O)O)C(N)=O [Compound 20, (S)-5-amino-4-((S)-5-amino-2-(3-(3-(biphenyl-4-yl)isoxazol-5-yl)propanamido)-5-oxopentanamido)-5-oxopentanoic acid]",> 1000,> 1000,> 1000,834,> 10000,> 5000,234,412,,,,,,,,
"NC(=O)[C@H](CO)NC(=O)[C@H](CCC(=O)O)NC(=O)CCc1ccc(-c2ccc(-c3ccccc3)cc2)cc1 [Compound 68, (S)-5-((S)-1-amino-3-hydroxy-1-oxopropan-2-ylamino)-4-(3-(4′-phenylbiphenyl-4-yl)propanamido)-5-oxopentanoic acid]",227,> 1000,108,31,> 1000,71,16.6,3.5,,,,,,,,
"NC(=O)[C@H](CC(=O)O)NC(=O)[C@H](CCC(=O)O)NC(=O)CCc1cc(-c2ccc(-c3ccccc3)cc2)no1 [Compound 18, (S)-5-((S)-1-amino-3-carboxy-1-oxopropan-2-ylamino)-4-(3-(3-(biphenyl-4-yl)isoxazol-5-yl)propanamido)-5-oxopentanoic acid]",,,,,,,,,832,> 1000,440,93,> 1000,196,30,8
"NC(=O)[C@H](CCC(=O)O)NC(=O)[C@H](CCC(=O)O)NC(=O)CCc1ccc(-c2cccc(O)c2)cc1 [Compound 54, (S)-5-amino-4-((S)-4-carboxy-2-(3-(3′-hydroxybiphenyl-4-yl)propanamido)butanamido)-5-oxopentanoic acid]",> 1000,> 1000,> 10000,> 10000,> 10000,> 1000,> 10000,176,,,,,,,,
"C[C@H](NC(=O)CCc1ccc(-c2ccc(-c3ccccc3)cc2)cc1)C(=O)N[C@@H](CCC(=O)O)C(N)=O [Compound 76, (S)-5-amino-4-((S)-2-(3-(4′-phenylbiphenyl-4-yl)propanamido)propanamido)-5-oxopentanoic acid]",> 1000,> 5000,142,854,> 5000,> 10000,427,251,,,,,,,,
"NC(=O)[C@H](Cc1ccc(O)cc1)NC(=O)[C@H](CCC(=O)O)NC(=O)CCc1ccc(-c2ccccc2)cc1 [Compound 46, (S)-5-((S)-1-amino-3-(4-hydroxyphenyl)-1-oxopropan-2-ylamino)-4-(3-(biphenyl-4-yl)propanamido)-5-oxopentanoic acid]",270,> 1000,> 10000,632,> 5000,> 1000,> 1000,52,,,,,,,,
"NC(=O)[C@H](CCC(=O)O)NC(=O)[C@H](CCC(=O)O)NC(=O)CCc1ccc(-c2cccc([N+](=O)[O-])c2)cc1 [Compound 55, (S)-5-amino-4-((S)-4-carboxy-2-(3-(3′-nitrobiphenyl-4-yl)propanamido)butanamido)-5-oxopentanoic acid]",,,,,,,,,> 1000,685,878,> 1000,> 5000,> 1000,436,73
